As a reminder, the IC50 is the concentration that gives 50% inhibition.

The target in series [1] is xanthine oxidase (bovine milk-derived) (Bos taurus, UniProt P80457). Nature of the series: XO inhibition assay in vitro (UV absorbance at 295 nm). The format is biochemical. The note with it: xanthine substrate, 37 °C, mean of three independent experiments, read-out: IC50, direct XO inhibitory activity.
Experimental: Prior to the assay, the compounds were freshly dissolved in a mixture of 30% dimethyl sulfoxide (DMSO; FUJIFILM Wako) and 70% phosphate buffer (100 mM, pH 7.5) to prepare test solutions at final concentrations ranging from 0 to 100 µM. In each well of a 96-well microplate, 50 µL of the test solution was mixed with 60 µL of buffer and 30 µL of xanthine oxidase (7.8 mU/mL, bovine milk-derived; Sigma-Aldrich). After preincubation at 37 °C for 10 min, the reaction was initiated by adding 60 µL of xanthine substrate (150 µM; FUJIFILM Wako). Absorbance at 295 nm was monitored for 30 min at 37 °C using a Spark 10 M microplate reader (Tecan Group Ltd., Männedorf, Switzerland). XO inhibitory activity was expressed as percentage inhibition, calculated using the formula Inhibition (%) = 100 × [1 − (B/A)], where A and B represent the absorbance increase in the absence and presence of the test compound, respectively. All measurements were performed in triplicate.
All experimental data are presented as mean ± SEM. […] Data from the in vitro XO inhibition assay are shown as mean values from three independent experiments. IC50 values were calculated by nonlinear regression analysis using dose–response curves generated from at least six concentrations of each compound. All statistical analyses were performed using GraphPad Prism version 10 (GraphPad Software, San Diego, CA, USA).
Series [2] concerns AML12 hepatocytes. Nature of the series: Cell viability, WST-8 assay. The class given is cell-based. The note with it: concentrations up to 100 µM, 2 h. Here is the method:
The viability of AML12 cells was determined using the WST-8 assay provided in the Cell Counting Kit-8 (Dojindo Laboratories, Kumamoto, Japan). Cells were initially seeded at 5 × 10^3 cells per well in 96-well plates and maintained in DMEM/F-12 medium containing 10% (v/v) FBS for 72 h. To induce serum deprivation, the medium was replaced with serum-free DMEM/F-12, and cells were incubated for an additional 24 h. […] The treatment lasted for 2 h. Subsequently, cells were washed again with BSS and incubated with the WST-8 reagent for 1 h. Absorbance was measured at 490 nm using a microplate reader (MTP-310Lab; CORONA […] Co., Ltd., […], Japan). Cell viability was normalized to the DMSO control (0 μM), which was set at 100%.

Series [3] concerns AML12 hepatocytes. Description: UA production by AML12 cells stimulated with UA precursors. The format is cell-based. The note with it: for maximum reduction of UA production: guanosine + inosine (GI mixture) 100 µM each, vs control (0 µM); for UA production: UA precursor xanthine. The method, then:
AML12 hepatocytes used in this study were acquired from ATCC (CRL-2254), Manassas, VA, USA. AML12 cells were maintained in DMEM/F-12 (Life Technologies, Grand Island, NY, USA) supplemented with 10% (v/v) fetal bovine serum (FBS; Hyclone, Logan, UT, USA), recombinant human insulin (5 µg/mL), human transferrin (5 µg/mL), and dexamethasone (40 ng/mL), each obtained from FUJIFILM Wako, as well as selenium (3 ng/mL, Sigma-Aldrich) and penicillin–streptomycin mixed solution (100 U/mL penicillin and 100 µg/mL streptomycin, Nacalai Tesque), under a humidified atmosphere of 5% CO2 at 37 °C. Culture of AML12 hepatocytes and measurement of UA production were conducted following a previously reported protocol.Cells were seeded at a density of 1.0 × 10^5 cells per well in 24-well plates and cultured for 72 h in complete medium, followed by 24 h in serum-free DMEM/F-12. After serum deprivation, cells were rinsed once with calcium- and magnesium-free phosphate-buffered saline [PBS (–)] and incubated in 200 µL of balanced salt solution (BSS) containing […], 5 mM KCl, 1 mM MgCl2, 0.8 mM CaCl2, 25 mM NaHCO3, 1 mM NaH2PO4, 10 mM HEPES, and 5 mM glucose. […] The final concentration of DMSO in all samples was adjusted to 0.15%. After a 2-h incubation, 200 µL of the reaction mixture was collected for UA quantification. The UA concentration in BSS was used as an indicator of UA production. Subsequently, cells were washed with PBS (–) and lysed in 300 µL of buffer containing 50 mM Tris and 1 mM sodium phosphate (pH 7.5). Lysates were sonicated and centrifuged (12,000× g, 5 min, 4 °C), and the supernatants were used for protein quantification using the Pierce™ BCA Protein Assay Kit (Thermo Fisher Scientific Inc., Waltham, MA, USA). UA levels were measured using the uricase-based Uric Acid C-Test Wako (FUJIFILM Wako). UA production was expressed as nanomoles per 2 h per milligram of cellular protein (nmol/2 h/mg protein).

Series [4] relates to XO. The note with it: read-out: IC50, XO inhibition (previous report); cited from earlier work.

xanthine oxidase (bovine milk-derived), sequence (P80457 whole entry): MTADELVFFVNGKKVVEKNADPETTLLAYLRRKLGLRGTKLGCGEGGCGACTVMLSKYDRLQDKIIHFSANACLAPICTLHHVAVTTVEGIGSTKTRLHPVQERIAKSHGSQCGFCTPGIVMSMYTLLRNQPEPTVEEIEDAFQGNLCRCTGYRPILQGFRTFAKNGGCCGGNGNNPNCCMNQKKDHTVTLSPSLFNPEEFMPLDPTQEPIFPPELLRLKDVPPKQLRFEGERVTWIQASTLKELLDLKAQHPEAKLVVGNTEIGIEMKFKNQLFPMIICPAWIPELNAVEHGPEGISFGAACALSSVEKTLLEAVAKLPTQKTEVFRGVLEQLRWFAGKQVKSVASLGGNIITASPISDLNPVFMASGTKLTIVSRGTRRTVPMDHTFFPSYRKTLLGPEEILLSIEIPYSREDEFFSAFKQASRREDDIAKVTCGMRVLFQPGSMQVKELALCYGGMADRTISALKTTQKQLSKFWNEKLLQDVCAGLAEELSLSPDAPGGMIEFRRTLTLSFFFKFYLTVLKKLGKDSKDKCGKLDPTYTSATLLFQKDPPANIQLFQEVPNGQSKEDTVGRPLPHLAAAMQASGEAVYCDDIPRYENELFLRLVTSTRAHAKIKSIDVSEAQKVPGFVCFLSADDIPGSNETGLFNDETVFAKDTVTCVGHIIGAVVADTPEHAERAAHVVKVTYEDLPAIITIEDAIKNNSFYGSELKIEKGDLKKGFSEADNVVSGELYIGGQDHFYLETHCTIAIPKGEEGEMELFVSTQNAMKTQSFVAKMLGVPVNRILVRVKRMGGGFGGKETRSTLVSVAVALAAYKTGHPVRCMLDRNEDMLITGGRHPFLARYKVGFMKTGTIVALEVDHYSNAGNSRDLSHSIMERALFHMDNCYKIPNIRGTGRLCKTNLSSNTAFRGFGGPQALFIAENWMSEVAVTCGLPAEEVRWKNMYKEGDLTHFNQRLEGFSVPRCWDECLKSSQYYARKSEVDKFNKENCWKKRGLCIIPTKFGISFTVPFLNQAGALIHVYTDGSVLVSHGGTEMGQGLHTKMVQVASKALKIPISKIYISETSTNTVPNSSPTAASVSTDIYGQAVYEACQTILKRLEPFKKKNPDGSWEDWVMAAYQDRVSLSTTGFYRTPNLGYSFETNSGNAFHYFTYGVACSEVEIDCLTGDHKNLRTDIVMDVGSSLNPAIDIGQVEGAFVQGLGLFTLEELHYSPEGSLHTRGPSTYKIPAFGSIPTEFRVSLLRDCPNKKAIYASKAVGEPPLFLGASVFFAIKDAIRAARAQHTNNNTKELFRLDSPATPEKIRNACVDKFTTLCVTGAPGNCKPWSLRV

Regarding `O=c1c(O[C@@H]2O[C@H](CO)[C@@H](O)[C@H](O)[C@H]2O)c(-c2ccc(O)cc2)oc2cc(O)cc(O)c12` [Astragalin, kaempferol-3-O-glucoside], the IC50 was 43 µM in series [1] and 49.5 µM in series [4]. Moreover, the “cytotoxic effects (cell viability)” value in series [2] is “did not exhibit any cytotoxic effects”. Besides, the “maximum reduction of UA production” value in series [3] (100 µM, 2 h) is recorded as “approximately 13.3%”.
With `O=c1c(O)c(-c2ccc(O)cc2)oc2cc(O)cc(O)c12` [Kaempferol, kaempferol], the “cytotoxic effects (cell viability)” value in series [2] was “did not exhibit any cytotoxic effects”. Further, the UA production in series [3] (10 µM) was 236.0 ± 7.2 nmol/2 h/mg protein; in series [3] (30 µM), 101.1 ± 2.8 nmol/2 h/mg protein; in series [3] (100 µM) it was 31.4 ± 0.5 nmol/2 h/mg protein. In series [3] (100 µM, 2 h), the “maximum reduction of UA production” value was around 97.2%.
On to `O=C(O)/C=C/c1ccc(O)cc1` [p-Coumaric acid, p-coumaric acid], for which, in series [1], the IC50 was above 100 µM. Further, the “cytotoxic effects (cell viability)” value in series [2] was “did not exhibit any cytotoxic effects”. For the same compound, in series [3] (concentrations up to 100 µM, GI mixture, 2 h), the “effect on UA production” value is “remained unaffected”.
